Assay type in all cases: biochemical
For one experiment, the target named is CDK2/CCNE1 (Homo sapiens, UniProt P24941). As to the kind of experiment: CDK2 homogeneous time-resolved fluorescence (HTRF) kinase assay. The settings on record: CDK2/CCNE. In short, it runs like this:
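TR-FRET read-out (665 nm, or 665/615 ratio) of Eu-antibody detection of phospho-4E-BP1 (Thr37/46) ULight peptide. Enzyme 3 nM, ATP 1 mM, peptide 50 nM, 1% DMSO; 60 min reaction at 23 °C after 20 min compound preincubation. IC50 from 11-point half-log titrations, top typically 10 μM.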
(Time-resolved FRET reads energy transfer from a long-lived donor to a nearby acceptor.)

Another experiment deals with CDK4/CCND3 (Homo sapiens, UniProt P11802). As to the kind of experiment: CDK4 homogeneous time-resolved fluorescence (HTRF) kinase assay. The settings on record: CDK4/CCND. In a few lines:
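TR-FRET read (665 nm, or 665/615 ratio) of 4E-BP1 Thr37/46 phosphorylation by 1.5 nM CDK4/CCND3 at 1 mM ATP, 50 nM ULight peptide, 1% DMSO. Reaction ran 60 min at 23 °C after 20 min compound–enzyme preincubation. IC50 from 11-point half-log dilutions, top 10 μM.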

Another experiment concerns the target CDK1/CCNB1 (Homo sapiens, UniProt P06493). In words: CDK1 homogeneous time-resolved fluorescence (HTRF) kinase assay. The settings on record: CDK1/CCNB. In a few lines:
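Kinase activity is measured as Lance signal (665 nm, or 665/615 nm ratio) from europium-labelled anti-phospho-Thr37/46 antibody binding ULight-4E-BP1 peptide. Reactions contain 0.5 nM enzyme, 1 mM ATP, 1% DMSO and run 60 min at 23 °C before EDTA quench.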

Another experiment concerns the target CDK6/CCND1 (Homo sapiens, UniProt Q00534). In words: CDK6 homogeneous time-resolved fluorescence (HTRF) kinase assay. The settings on record: CDK6/CCND. In a few lines:
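Assay conditions: HEPES buffer containing 10 mM MgCl2, 1 mM EGTA, 2 mM DTT, 0.01% Tween 20; 1 nM CDK6/CCND1, 50 nM peptide substrate, 1 mM ATP. Detection after 60 min reaction used 2 nM europium antibody with 340 nm excitation. Potency fitted from half-log series, 11 points.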

[1] abbreviates: x = IC50 <25 nM, read-out: CDK2/CCNE IC50 (<25 nM).
Where [2] appears, read: x = IC50 >250 nM, read-out: CDK4/CCND IC50 (>250 nM column).
[3] abbreviates: x = IC50 >250 nM, read-out: CDK1/CCNB IC50 (>250 nM column).
[4] abbreviates: x = IC50 >250 nM, read-out: CDK6/CCND IC50 (>250 nM column).
[5] abbreviates: x = IC50 25-250 nM, read-out: CDK1/CCNB IC50 (25-250 nM).
Where [6] appears, read: x = IC50 25-250 nM, read-out: CDK2/CCNE IC50 (25-250 nM).

Experimental findings from patent US20260325533A1, “CDK INHIBITOR COMPOUNDS” (ALEKSIA THERAPEUTICS, INC., priority 2023, published 2026) are described below.

Where two headings read alike, the source gives them in different places.

Sequence of CDK6/CCND1 (Q00534 whole entry): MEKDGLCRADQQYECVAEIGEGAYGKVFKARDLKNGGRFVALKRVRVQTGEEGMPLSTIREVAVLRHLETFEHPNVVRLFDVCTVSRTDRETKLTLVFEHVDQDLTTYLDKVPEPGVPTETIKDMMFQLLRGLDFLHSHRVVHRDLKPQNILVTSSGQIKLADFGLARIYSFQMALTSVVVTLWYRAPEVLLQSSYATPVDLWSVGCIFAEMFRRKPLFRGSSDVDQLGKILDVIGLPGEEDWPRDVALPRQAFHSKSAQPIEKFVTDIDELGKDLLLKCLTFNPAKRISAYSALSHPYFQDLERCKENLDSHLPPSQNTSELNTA
Sequence of CDK6/CCND1 (P24385 whole entry partner): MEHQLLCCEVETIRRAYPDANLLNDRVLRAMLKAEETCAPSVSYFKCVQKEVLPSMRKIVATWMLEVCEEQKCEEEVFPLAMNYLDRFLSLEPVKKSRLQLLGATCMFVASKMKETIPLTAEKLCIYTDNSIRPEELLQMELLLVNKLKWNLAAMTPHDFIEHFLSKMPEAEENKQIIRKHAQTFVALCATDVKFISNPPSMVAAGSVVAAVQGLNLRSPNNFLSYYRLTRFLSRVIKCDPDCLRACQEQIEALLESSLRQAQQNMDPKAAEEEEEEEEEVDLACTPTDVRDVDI
Sequence of CDK1/CCNB1 (P06493 whole entry): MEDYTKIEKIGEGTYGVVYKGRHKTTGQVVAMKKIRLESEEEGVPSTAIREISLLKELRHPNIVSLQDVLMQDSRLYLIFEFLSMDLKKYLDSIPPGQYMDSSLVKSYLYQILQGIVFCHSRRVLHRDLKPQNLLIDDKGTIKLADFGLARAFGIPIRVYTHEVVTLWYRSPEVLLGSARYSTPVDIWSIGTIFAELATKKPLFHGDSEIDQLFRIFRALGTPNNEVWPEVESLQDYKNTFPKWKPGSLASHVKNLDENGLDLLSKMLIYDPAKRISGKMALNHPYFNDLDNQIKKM
Sequence of CDK1/CCNB1 (P14635 whole entry partner): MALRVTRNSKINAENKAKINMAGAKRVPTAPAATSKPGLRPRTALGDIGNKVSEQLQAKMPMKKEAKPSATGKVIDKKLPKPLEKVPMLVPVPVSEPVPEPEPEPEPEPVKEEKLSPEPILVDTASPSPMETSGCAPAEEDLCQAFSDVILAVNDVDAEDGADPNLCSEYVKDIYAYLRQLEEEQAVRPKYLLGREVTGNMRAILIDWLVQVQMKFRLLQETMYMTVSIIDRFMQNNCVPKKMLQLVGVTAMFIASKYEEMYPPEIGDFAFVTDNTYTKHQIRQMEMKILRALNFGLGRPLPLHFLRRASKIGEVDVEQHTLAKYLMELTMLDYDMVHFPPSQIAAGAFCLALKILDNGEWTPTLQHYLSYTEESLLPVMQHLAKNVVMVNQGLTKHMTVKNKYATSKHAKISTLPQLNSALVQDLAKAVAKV
Sequence of CDK4/CCND3 (P11802 whole entry): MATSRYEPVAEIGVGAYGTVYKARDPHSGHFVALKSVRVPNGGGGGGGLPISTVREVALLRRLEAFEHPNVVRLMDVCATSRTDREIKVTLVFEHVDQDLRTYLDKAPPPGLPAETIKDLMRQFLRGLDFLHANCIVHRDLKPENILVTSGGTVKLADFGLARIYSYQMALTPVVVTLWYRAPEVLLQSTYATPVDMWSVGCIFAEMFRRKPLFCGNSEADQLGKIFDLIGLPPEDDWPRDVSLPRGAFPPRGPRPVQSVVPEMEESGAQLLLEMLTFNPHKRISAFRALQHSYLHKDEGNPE
Sequence of CDK4/CCND3 (P30281 whole entry partner): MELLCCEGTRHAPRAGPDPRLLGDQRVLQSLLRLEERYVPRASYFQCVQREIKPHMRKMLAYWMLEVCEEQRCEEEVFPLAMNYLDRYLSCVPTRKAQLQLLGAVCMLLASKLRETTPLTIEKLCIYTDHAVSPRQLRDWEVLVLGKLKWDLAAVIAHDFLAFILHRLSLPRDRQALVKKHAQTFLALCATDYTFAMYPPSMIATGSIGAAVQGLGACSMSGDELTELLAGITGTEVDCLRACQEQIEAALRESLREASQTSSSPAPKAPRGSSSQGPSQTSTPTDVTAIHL

As for `CC1(C)C(=O)Nc2cc(C#Cc3nccc4cnc(Nc5ccc(S(C)(=O)=O)c(O)c5)cc34)ccc21` [Ex 379, 6-((7-((3-hydroxy-4-(methylsulfonyl)phenyl)amino)-2,6-naphthyridin-1-yl)ethynyl)-3,3-dimethylindolin-2-one], the IC50 at CDK2/CCNE1 (setting [1]) is < 25 nM; on CDK4/CCND3 (setting [2]), > 250 nM; at CDK1/CCNB1 (setting [3]) it was > 250 nM; at CDK6/CCND1 (setting [4]), > 250 nM.

For the compound `CC1(C)C(=O)Nc2cc(C#Cc3nccc4cnc(Nc5ccc(S(C)(=O)=O)cc5O)cc34)ccc21` [Ex 380, 6-((7-((2-hydroxy-4-(methylsulfonyl)phenyl)amino)-2,6-naphthyridin-1-yl)ethynyl)-3,3-dimethylindolin-2-one], the IC50 at CDK2/CCNE1 (setting [1]) is < 25 nM; on CDK4/CCND3 (setting [2]), > 250 nM; on CDK1/CCNB1 (setting [3]), > 250 nM; on CDK6/CCND1 (setting [4]), > 250 nM.

As for `Cc1cc(S(C)(=O)=O)ccc1Nc1cc2c(C#Cc3ccc4c(c3)NC(=O)C43CCC3)nccc2cn1` [Ex 381, 6'-((7-((2-methyl-4-(methylsulfonyl)phenyl)amino)-2,6-naphthyridin-1-yl)ethynyl)spiro[cyclobutane-1,3'-indolin]-2'-one], the IC50 was < 25 nM at CDK2/CCNE1 (setting [1]), > 250 nM at CDK4/CCND3 (setting [2]), > 250 nM on CDK1/CCNB1 (setting [3]) and > 250 nM at CDK6/CCND1 (setting [4]).

On to `O=C1Nc2cc(C#Cc3nccc4cnc(Nc5ccc(S(=O)(=O)C6CC6)cc5)cc34)ccc2C12CCC2` [Ex 385, 6'-((7-((4-(cyclopropylsulfonyl)phenyl)amino)-2,6-naphthyridin-1-yl)ethynyl)spiro[cyclobutane-1,3'-indolin]-2'-one], for which the IC50 on CDK2/CCNE1 (setting [1]) is < 25 nM; on CDK4/CCND3 (setting [2]), > 250 nM; on CDK1/CCNB1 (setting [5]) it was 25 to 250 nM; on CDK6/CCND1 (setting [4]), > 250 nM.

Regarding `CC(C)S(=O)(=O)c1ccc(Nc2cc3c(C#Cc4ccc5c(c4)NC(=O)C54CCC4)nccc3cn2)cc1` [Ex 386, 6'-((7-((4-(isopropylsulfonyl)phenyl)amino)-2,6-naphthyridin-1-yl)ethynyl)spiro[cyclobutane-1,3'-indolin]-2'-one], the IC50 on CDK2/CCNE1 (setting [1]) is < 25 nM; on CDK4/CCND3 (setting [2]), > 250 nM; on CDK1/CCNB1 (setting [3]) it was > 250 nM; on CDK6/CCND1 (setting [4]), > 250 nM.

As to `O=C1Nc2cc(C#Cc3nccc4cnc(Nc5ccc(S(=O)(=O)C6CCC6)cc5)cc34)ccc2C12CCC2` [Ex 387, 6'-((7-((4-(cyclobutylsulfonyl)phenyl)amino)-2,6-naphthyridin-1-yl)ethynyl)spiro[cyclobutane-1,3'-indolin]-2'-one], the IC50 at CDK2/CCNE1 (setting [1]) is < 25 nM; on CDK4/CCND3 (setting [2]), > 250 nM; on CDK1/CCNB1 (setting [5]), 25 to 250 nM; on CDK6/CCND1 (setting [4]) it was > 250 nM.

For `O=C1Nc2cc(C#Cc3nccc4cnc(Nc5ccc(S(=O)(=O)C6CC6)cc5)cc34)ccc2C12CC2` [Ex 392, 6'-((7-((4-(cyclopropylsulfonyl)phenyl)amino)-2,6-naphthyridin-1-yl)ethynyl)spiro[cyclopropane-1,3'-indolin]-2'-one], the IC50 is < 25 nM at CDK2/CCNE1 (setting [1]), > 250 nM at CDK4/CCND3 (setting [2]), 25 to 250 nM at CDK1/CCNB1 (setting [5]) and > 250 nM at CDK6/CCND1 (setting [4]).

Regarding `CC(C)S(=O)(=O)c1ccc(Nc2cc3c(C#Cc4ccc5c(c4)NC(=O)C54CC4)nccc3cn2)cc1` [Ex 393, 6'-((7-((4-(isopropylsulfonyl)phenyl)amino)-2,6-naphthyridin-1-yl)ethynyl)spiro[cyclopropane-1,3'-indolin]-2'-one], the IC50 at CDK2/CCNE1 (setting [1]) was < 25 nM; at CDK4/CCND3 (setting [2]) it was > 250 nM; at CDK1/CCNB1 (setting [5]), 25 to 250 nM; at CDK6/CCND1 (setting [4]), > 250 nM.

Consider `O=C1Nc2cc(C#Cc3nccc4cnc(Nc5ccc(S(=O)(=O)C6CCC6)cc5)cc34)ccc2C12CC2` [Ex 394, 6'-((7-((4-(cyclobutylsulfonyl)phenyl)amino)-2,6-naphthyridin-1-yl)ethynyl)spiro[cyclopropane-1,3'-indolin]-2'-one], for which the IC50 was < 25 nM on CDK2/CCNE1 (setting [1]), > 250 nM on CDK4/CCND3 (setting [2]), 25 to 250 nM on CDK1/CCNB1 (setting [5]) and > 250 nM at CDK6/CCND1 (setting [4]).

For `CCC1(CC)C(=O)Nc2cc(C#Cc3nccc4cnc(Nc5ccc(S(C)(=O)=O)cc5OC)cc34)ccc21` [Ex 396, 3,3-diethyl-6-((7-((2-methoxy-4-(methylsulfonyl)phenyl)amino)-2,6-naphthyridin-1-yl)ethynyl)indolin-2-one], the IC50 is < 25 nM on CDK2/CCNE1 (setting [1]), > 250 nM at CDK4/CCND3 (setting [2]), > 250 nM on CDK1/CCNB1 (setting [3]) and > 250 nM on CDK6/CCND1 (setting [4]).

Consider `CCS(=O)(=O)c1ccc(Nc2cc3c(C#Cc4ccc5c(c4)NC(=O)C54CC4)nccc3cn2)cc1` [Ex 397, 6'-((7-((4-(ethylsulfonyl)phenyl)amino)-2,6-naphthyridin-1-yl)ethynyl)spiro[cyclopropane-1,3'-indolin]-2'-one], for which the IC50 was < 25 nM on CDK2/CCNE1 (setting [1]); 25 to 250 nM on CDK4/CCND3 (x = IC50 25-250 nM, read-out: CDK4/CCND IC50 (25-250 nM)); 25 to 250 nM at CDK1/CCNB1 (setting [5]); 25 to 250 nM on CDK6/CCND1 (x = IC50 25-250 nM, read-out: CDK6/CCND IC50 (25-250 nM)).

`Nc1ncccc1C#Cc1nccc2cnc(Nc3ccc(S(=O)(=O)C4CC4)cc3)cc12` [Ex 399, 5-((2-aminopyridin-3-yl)ethynyl)-N-(4-(cyclopropylsulfonyl)phenyl)-2,6-naphthyridin-3-amine]: the IC50 was < 25 nM on CDK2/CCNE1 (setting [1]), > 250 nM on CDK4/CCND3 (setting [2]), > 250 nM at CDK1/CCNB1 (setting [3]) and > 250 nM on CDK6/CCND1 (setting [4]).

Turning to `CC(C)S(=O)(=O)c1ccc(Nc2cc3c(C#Cc4cccnc4N)nccc3cn2)cc1` [Ex 400, 5-((2-aminopyridin-3-yl)ethynyl)-N-(4-(isopropylsulfonyl)phenyl)-2,6-naphthyridin-3-amine], the IC50 on CDK2/CCNE1 (setting [6]) was 25 to 250 nM; on CDK4/CCND3 (setting [2]), > 250 nM; on CDK1/CCNB1 (setting [3]) it was > 250 nM; on CDK6/CCND1 (setting [4]), > 250 nM.

Consider `CCS(=O)(=O)c1ccc(Nc2cc3c(C#Cc4cccnc4N)nccc3cn2)cc1` [Ex 401, 5-((2-aminopyridin-3-yl)ethynyl)-N-(4-(ethylsulfonyl)phenyl)-2,6-naphthyridin-3-amine], for which the IC50 at CDK2/CCNE1 (setting [1]) is < 25 nM; on CDK4/CCND3 (setting [2]) it was > 250 nM; at CDK1/CCNB1 (setting [3]) it was > 250 nM; on CDK6/CCND1 (setting [4]), > 250 nM.

Consider `CCS(=O)(=O)c1ccc(Nc2cc3c(C#Cc4ccc5c(c4)NC(=O)C54CCC4)nccc3cn2)cc1` [Ex 405, 6'-((7-((4-(ethylsulfonyl)phenyl)amino)-2,6-naphthyridin-1-yl)ethynyl)spiro[cyclobutane-1,3'-indolin]-2'-one], for which the IC50 on CDK2/CCNE1 (setting [1]) was < 25 nM; on CDK4/CCND3 (setting [2]) it was > 250 nM; at CDK1/CCNB1 (setting [5]) it was 25 to 250 nM; on CDK6/CCND1 (setting [4]) it was > 250 nM.

As to `CC1(C)C(=O)Nc2cc(C#Cc3nccc4cnc(Nc5ccc(S(C)(=O)=O)c(Cl)c5)cc34)ccc21` [Ex 407, 6-((7-((3-chloro-4-(methylsulfonyl)phenyl)amino)-2,6-naphthyridin-1-yl)ethynyl)-3,3-dimethylindolin-2-one], the IC50 is 25 to 250 nM on CDK2/CCNE1 (setting [6]), > 250 nM on CDK4/CCND3 (setting [2]), > 250 nM at CDK1/CCNB1 (setting [3]) and > 250 nM on CDK6/CCND1 (setting [4]).

For the compound `CCC1(CC)C(=O)Nc2cc(C#Cc3nccc4cnc(Nc5ccc(S(=O)(=O)C6CCC6)cc5)cc34)ccc21` [Ex 409, 6-((7-((4-(cyclobutylsulfonyl)phenyl)amino)-2,6-naphthyridin-1-yl)ethynyl)-3,3-diethylindolin-2-one], the IC50 is < 25 nM at CDK2/CCNE1 (setting [1]), > 250 nM at CDK4/CCND3 (setting [2]), > 250 nM at CDK1/CCNB1 (setting [3]) and > 250 nM on CDK6/CCND1 (setting [4]).
